Laboratory results published in patent US10717746B2, “Chemical compounds” (ASTRAZENECA AB, priority 2015, dated 2020).

How the values were obtained:
MV411 cells = experiment: MV411 caspase activity assay (Caspase-Glo 3/7); type: cell-based; conditions: Homo sapiens, MV4-11, 6 h, 6-hr treatment, caspase 3/7 induction
Protocol: MV411 Caspase Activity Assay
This is a cell assay to measure the induction of caspase activity in the acute myeloid leukemia cell line, MV411 after 6-hr treatment with CDK9 inhibitors. On the first day, 3000 MV411 cells/well were seeded in 50 μl of growth media (IMDM+10% FBS+2% L-Glu+P/S) in 384-well white plates, incubate plates in 37° C. incubator overnight. […] After 6 hour incubation in 37° C. incubator, 25 μl of Caspase-Glo 3/7 reagent (Promega) per well was added into each well, and plates were incubated at room temperature for 30 min in dark. The plates were read on an Infinite M200 microplate reader (Tecan) with a 100 ms integration time.

[1] = test system: phosphorylation of RNA Polymerase II (RNAPII) at the Ser2 site in MCF7 cells; experiment: MCF7 pSer2 RNAPII MOA assay (immunofluorescence); type: cell-based; conditions: Homo sapiens, MCF7, 6 h, 6-hr treatment, read-out: p-Ser 2 RNAPII (IC50)
Protocol: MCF7 pSer2 RNAPII MOA Assay
This is an immunofluorescence assay to determine the effect of CDK9 inhibitors on phosphorylation of RNA Polymerase II (RNAPII) at the Ser2 site in the breast cancer cell line, MCF7. On day one, 2500 MCF7 cells/well were seeded in 30 μl of growth media (RPMI+10% FBS+1% L-Glu+P/S) in 384-well black-wall clear-bottom plates, incubate plates overnight at 37° C. incubator. On the second day, the cells were treated with CDK9 inhibitors (7 point dose response ranging from 3 μM to 0.004 μM) using an ECHO liquid handler (Labcyte). After 6-hr treatment at 37° C. incubator, the cells were fixed with 30 µl/well 7.4% paraformaldehyde for 15 min at room temperature; the cells were washed twice with PBS, then permeabilized with 0.3% Triton X/PBS for 5 min at room temperature. After washing cells with PBS, the cells were incubated with 1:2000 diluted Anti-Ser2 Phospho-RNA pol II antibody (Covance MMS-129R) in 3% FBS/0.1% PBST overnight at 4° C. On the next day, the cells were washed twice with 0.1% PBST, then incubated with 1:1000 diluted Alexa Fluor 488 Goat-anti-mouse antibody (Life Technologies A-11001) and 1:4000 diluted DAPI at room temperature in dark. After one hour incubation, the cells were washed twice with 0.1% PBST, and once with PBS. The plates where sealed and read on an Acumen eX3 microplate cytometer (TTP Labtech) to assess phosphorylation level in each well.

CDK9/CycT1 [2] = molecular target: T1, CDK9/CycT1 (Homo sapiens (Human), UniProt P50750); experiment: CDK9 kinase assay, ATP concentration at Km (mobility shift, Caliper LC3000); type: biochemical; conditions: 6 μM ATP, 3 nM CDK9/CycT1; read-out: CDK9 ATP conc. at Km (IC50)
Protocol: (§1) Activity of CDK9 was determined in-vitro using a mobility shift assay on a Caliper LC3000 reader (Caliper/PerkinElmer), which measures fluorescence of a phosphorylated and unphosphorylated fluorescent peptide substrate and calculates a ratiometric value to determine percent turnover. Phosphorylation of the peptide in the presence and absence of the compound of interest was determined. Enzyme/substrate/adenosine triphosphate (ATP) mix (3 nM CDK9/CycT1, 6 μM ATP, 1.5 μM CDK9 peptide substrate (FITC-X-GSRTPMY-NH2 (X: epsilon aminocaproic acid)), 50 mM HEPES (pH7.2), 1 mM dithiothreitol, 0.01% tween 20, 50 μg/mL bovine serum albumin, (final assay concentration)) (5 μl) was preincubated with 2 μl of compound for 15 minutes at 25° C. Reactions were initiated with 5 μl of 24 mM MgCl2 (10 mM final assay concentration) in buffer (50 mM HEPES (pH7.2), 1 mM dithiothreitol, 0.01% tween 20, 50 μg/mL bovine serum albumin, (final assay concentration) and incubated at 25° C. for 90 minutes and reactions were stopped by addition of 5 μl of Stop mix consisting of 65 mM HEPES (pH7.2), 35.5 mM EDTA, 0.227% Coatin Reagent 3 (Caliper/PerkinElmer), and 0.003% Tween. Phosphorylated and unphosphorylated substrate was detected by a Caliper LC3000 reader (Caliper/PerkinElmer) in the presence of separation buffer consisting of 100 mM HEPES (pH7.2), 15.8 mM EDTA, 0.1% Coatin Reagent 3 (Caliper/PerkinElmer), 0.015% Brij-35, 5% DMSO, and 5.6 mM MgCl2. CDK9 enzyme was acquired from Carna Biosciences (Catalogue number 04-110), the CDK9 peptide substrate was acquired from Intonation (Boston, Mass.; Custom-made).

CDK9/CycT1 [3] = molecular target: T1, CDK9/CycT1; experiment: CDK9 kinase assay, high ATP concentration (5 mM ATP); type: biochemical; conditions: 1.5 nM CDK9, read-out: CDK9 High ATP conc. (IC50)
Protocol: as §1
High ATP assays were run the same way with the following modifications: the final assay concentration of CDK9 was 1.5 nM and the final assay concentration of ATP was 5 mM.

T1 sequence (P50750 whole entry): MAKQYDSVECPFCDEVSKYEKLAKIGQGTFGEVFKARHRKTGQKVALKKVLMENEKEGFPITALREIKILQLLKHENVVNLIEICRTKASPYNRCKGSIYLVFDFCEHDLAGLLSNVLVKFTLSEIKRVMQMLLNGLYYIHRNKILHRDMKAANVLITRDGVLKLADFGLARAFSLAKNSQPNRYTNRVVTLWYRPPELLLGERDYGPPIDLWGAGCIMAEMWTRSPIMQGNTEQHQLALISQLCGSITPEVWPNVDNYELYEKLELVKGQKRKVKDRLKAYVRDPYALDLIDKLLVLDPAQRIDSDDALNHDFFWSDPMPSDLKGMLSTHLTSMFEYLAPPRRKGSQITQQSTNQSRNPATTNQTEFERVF
T1 sequence (O60563 whole entry partner): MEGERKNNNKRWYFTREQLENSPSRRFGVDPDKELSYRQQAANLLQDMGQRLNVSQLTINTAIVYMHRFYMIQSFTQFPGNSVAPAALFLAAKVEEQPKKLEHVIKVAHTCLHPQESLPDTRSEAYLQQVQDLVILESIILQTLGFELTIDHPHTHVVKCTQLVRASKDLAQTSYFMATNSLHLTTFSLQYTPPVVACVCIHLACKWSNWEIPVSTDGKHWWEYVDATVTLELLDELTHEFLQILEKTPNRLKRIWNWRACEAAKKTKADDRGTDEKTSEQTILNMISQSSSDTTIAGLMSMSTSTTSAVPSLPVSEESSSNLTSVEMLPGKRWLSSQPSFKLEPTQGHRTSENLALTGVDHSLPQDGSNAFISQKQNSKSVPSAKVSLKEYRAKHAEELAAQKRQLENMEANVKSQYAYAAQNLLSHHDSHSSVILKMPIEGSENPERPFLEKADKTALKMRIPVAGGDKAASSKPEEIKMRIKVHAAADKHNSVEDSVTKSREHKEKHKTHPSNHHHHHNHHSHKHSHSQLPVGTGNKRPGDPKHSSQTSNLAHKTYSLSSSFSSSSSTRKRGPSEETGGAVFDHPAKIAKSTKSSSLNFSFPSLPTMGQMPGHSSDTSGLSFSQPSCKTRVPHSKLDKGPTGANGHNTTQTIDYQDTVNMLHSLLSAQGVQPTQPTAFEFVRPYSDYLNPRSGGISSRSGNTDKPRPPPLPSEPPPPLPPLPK

SMILES | IC50 (MV411 cells) [nM] | IC50 [1] [nM] | IC50 (CDK9/CycT1 [2]) [nM] | IC50 (CDK9/CycT1 [3]) [nM]
C[C@H](O)C(=O)N[C@@H]1CCC[C@H](C(=O)Nc2cc(-c3cnn4c3CC(C)(C)C4)c(Cl)cn2)C1 [Example 20, (1S,3R)—N-(5-chloro-4-(5,5-dimethyl-5,6-dihydro-4H-pyrrolo[1,2-b]pyrazol-3-yl)pyridin-2-yl)-3-((S)-2-hydroxypropanamido)cyclohexanecarboxamide] | 14 | 10 | < 3 | < 3
CC1(C)Cc2c(-c3cc(NC(=O)[C@H]4CCC[C@@H](NC(=O)C5(O)CC5)C4)ncc3Cl)cnn2C1 [Example 21, (1S,3R)—N-(5-chloro-4-(5,5-dimethyl-5,6-dihydro-4H-pyrrolo[1,2-b]pyrazol-3-yl)pyridin-2-yl)-3-(1-hydroxycyclopropanecarboxamido)cyclohexanecarboxamide] | 13 | < 7 | < 3 | < 3
CC1(C)Cc2c(-c3cc(NC(=O)[C@H]4CCC[C@@H](NC(=O)[C@@H]5CCOC5)C4)ncc3Cl)cnn2C1 [Example 23, (R)—N-((1R,3S)-3-((5-chloro-4-(5,5-dimethyl-5,6-dihydro-4H-pyrrolo[1,2-b]pyrazol-3-yl)pyridin-2-yl)carbamoyl)cyclohexyl)tetrahydrofuran-3-carboxamide] | 12 | 6 | < 3 | < 3
CC1(C)Cc2c(-c3cc(NC(=O)[C@H]4CCC[C@@H](NC(=O)[C@H]5CCOC5)C4)ncc3Cl)cnn2C1 [Example 24, (S)—N-((1R,3S)-3-((5-chloro-4-(5,5-dimethyl-5,6-dihydro-4H-pyrrolo[1,2-b]pyrazol-3-yl)pyridin-2-yl)carbamoyl)cyclohexyl)tetrahydrofuran-3-carboxamide] | 15 | 11 | < 3 | 4
CC(=O)N[C@@H]1CCC[C@H](C(=O)Nc2cc(-c3cnn4c3CC(C)(C)C4)c(F)cn2)C1 [Example 25, (1S,3R)-3-acetamido-N-(4-(5,5-dimethyl-5,6-dihydro-4H-pyrrolo[1,2-b]pyrazol-3-yl)-5-fluoropyridin-2-yl)cyclohexanecarboxamide] | 29 | 25 | < 3 | 4
CC1(C)Cc2c(-c3ccnc(NC(=O)[C@H]4C[C@@H](O)C4)c3)cnn2C1 [Example 26, cis-N-(4-(5,5-dimethyl-5,6-dihydro-4H-pyrrolo[1,2-b]pyrazol-3-yl)pyridin-2-yl)-3-hydroxycyclobutanecarboxamide] | 152 | 122 | < 3 | 93
CC1(C)Cc2c(-c3cc(NC(=O)[C@H]4C[C@@H](O)C4)ncc3Cl)cnn2C1 [Example 27, cis-N-(5-chloro-4-(5,5-dimethyl-5,6-dihydro-4H-pyrrolo[1,2-b]pyrazol-3-yl)pyridin-2-yl)-3-hydroxycyclobutanecarboxamide] | 38 | 44 | < 3 | 25

The next lines start with the values.

IC50 (MV411 cells) [nM] | IC50 [1] [nM] | IC50 (CDK9/CycT1 [2]) [nM] | IC50 (CDK9/CycT1 [3]) [nM] | SMILES
6600 | > 3000 | 36 | 4710 | CC(=O)N[C@@H]1CCC[C@H](C(=O)Nc2cc(-c3cnn4c3CCCC4)ncn2)C1 [Example 28, (1S,3R)-3-acetamido-N-(6-(4,5,6,7-tetrahydropyrazolo[1,5-a]pyridin-3-yl)pyrimidin-4-yl)cyclohexanecarboxamide]
7220 | > 2630 | 63 | 7540 | O=C(Nc1cc(-c2cnn3c2CCCC3)ncn1)[C@H]1C[C@H](O)C1 [Example 29, trans-3-hydroxy-N-(6-(4,5,6,7-tetrahydropyrazolo[1,5-a]pyridin-3-yl)pyrimidin-4-yl)cyclobutanecarboxamide]
1050 | 1240 | 7 | 606 | CC(=O)N[C@@H]1CCC[C@H](C(=O)Nc2cc(-c3cnn4c3CC(C)(C)C4)ncn2)C1 [Example 30, (1S,3R)-3-acetamido-N-(6-(5,5-dimethyl-5,6-dihydro-4H-pyrrolo[1,2-b]pyrazol-3-yl)pyrimidin-4-yl)cyclohexanecarboxamide]
90 | 36 | < 3 | 12 | N#CCC(=O)N[C@@H]1CCC[C@H](C(=O)Nc2cc(-c3cnn4c3CCCC4)c(Cl)cn2)C1 [Example 31, (1S,3R)—N-(5-chloro-4-(4,5,6,7-tetrahydropyrazolo[1,5-a]pyridin-3-yl)pyridin-2-yl)-3-(2-cyanoacetamido)cyclohexanecarboxamide]
177 | 170 | < 3 | 16 | CC(C)(C)OC(=O)N[C@@H]1CCC[C@H](C(=O)Nc2cc(-c3cnn4c3CCCC4)c(Cl)cn2)C1 [Example 31a, tert-butyl ((1R,3S)-3-((5-chloro-4-(4,5,6,7-tetrahydropyrazolo[1,5-a]pyridin-3-yl)pyridin-2-yl)carbamoyl)cyclohexyl)carbamate]
136 | 55 | < 3 | 17 | O=C(Nc1cc(-c2cnn3c2CCCC3)c(Cl)cn1)[C@H]1CCC[C@@H](NC(=O)C2(O)CC2)C1 [Example 32, (1S,3R)—N-(5-chloro-4-(4,5,6,7-tetrahydropyrazolo[1,5-a]pyridin-3-yl)pyridin-2-yl)-3-(1-hydroxycyclopropanecarboxamido)cyclohexanecarboxamide]
171 | 57 | < 3 | 19 | O=C(Nc1cc(-c2cnn3c2CCCC3)c(Cl)cn1)[C@H]1CCC[C@@H](NC(=O)[C@@H]2CCOC2)C1 [Example 33, (R)—N-((1R,3S)-3-((5-chloro-4-(4,5,6,7-tetrahydropyrazolo[1,5-a]pyridin-3-yl)pyridin-2-yl)carbamoyl)cyclohexyl)tetrahydrofuran-3-carboxamide]
188 | 107 | < 3 | 29 | CC1(C(=O)N[C@@H]2CCC[C@H](C(=O)Nc3cc(-c4cnn5c4CCCC5)c(Cl)cn3)C2)COC1 [Example 34, N-((1R,3S)-3-((5-chloro-4-(4,5,6,7-tetrahydropyrazolo[1,5-a]pyridin-3-yl)pyridin-2-yl)carbamoyl)cyclohexyl)-3-methyloxetane-3-carboxamide]
125 | 40 | < 3 | 23 | O=C(Nc1cc(-c2cnn3c2CCCC3)c(Cl)cn1)[C@H]1CCC[C@@H](NC(=O)[C@@H]2CCCO2)C1 [Example 35, (S)—N-((1R,3S)-3-((5-chloro-4-(4,5,6,7-tetrahydropyrazolo[1,5-a]pyridin-3-yl)pyridin-2-yl)carbamoyl)cyclohexyl)tetrahydrofuran-2-carboxamide]
